Source: ChEMBL document CHEMBL5537167, “Rising Star in Immunotherapy: Development and Therapeutic Potential of Small-Molecule Inhibitors Targeting Casitas B Cell Lymphoma-b (Cbl-b)” (J Med Chem, 2024)

Columns and labels:
[1] = Metabolic stability in mouse liver microsomes assessed as intrinsic clearance
[2] = Metabolic stability in human liver microsomes assessed as intrinsic clearance
[3] = target: T1, E3 ubiquitin-protein ligase CBL-B (Homo sapiens, UniProt Q13191); assay: Inhibition of Cbl-b (unknown origin) by Cellular substrate assay
in vitro = details: rat, plasma
[4] = target: T1, E3 ubiquitin-protein ligase CBL-B; assay: Inhibition of CBL-B (unknown origin) by FRET assay
[5] = target: T1, E3 ubiquitin-protein ligase CBL-B
Description: Inhibition of N-terminal biotinylated Avi-tagged Cbl-b (36 to 427 residues) (unknown origin) by SPR assay

[6] = target: T1, E3 ubiquitin-protein ligase CBL-B; assay: Inhibition of CBL-B (unknown origin) by biochemical assay
[7] = test system: Panel NCI-60 (60 carcinoma cell lines); assay: Anti-proliferative activity against human Panel NCI-60 (60 carcinoma cell lines)
[8] = target: T1, E3 ubiquitin-protein ligase CBL-B; assay: Inhibition of Cbl-b (unknown origin) using fluorophore-labeled probe by TR-FRET based Cb1-b displacement assay
[9] = target: T1, E3 ubiquitin-protein ligase CBL-B; assay: Inhibition of Cbl-b (unknown origin) by TR-FRET assay

T1 sequence (Q13191 whole entry): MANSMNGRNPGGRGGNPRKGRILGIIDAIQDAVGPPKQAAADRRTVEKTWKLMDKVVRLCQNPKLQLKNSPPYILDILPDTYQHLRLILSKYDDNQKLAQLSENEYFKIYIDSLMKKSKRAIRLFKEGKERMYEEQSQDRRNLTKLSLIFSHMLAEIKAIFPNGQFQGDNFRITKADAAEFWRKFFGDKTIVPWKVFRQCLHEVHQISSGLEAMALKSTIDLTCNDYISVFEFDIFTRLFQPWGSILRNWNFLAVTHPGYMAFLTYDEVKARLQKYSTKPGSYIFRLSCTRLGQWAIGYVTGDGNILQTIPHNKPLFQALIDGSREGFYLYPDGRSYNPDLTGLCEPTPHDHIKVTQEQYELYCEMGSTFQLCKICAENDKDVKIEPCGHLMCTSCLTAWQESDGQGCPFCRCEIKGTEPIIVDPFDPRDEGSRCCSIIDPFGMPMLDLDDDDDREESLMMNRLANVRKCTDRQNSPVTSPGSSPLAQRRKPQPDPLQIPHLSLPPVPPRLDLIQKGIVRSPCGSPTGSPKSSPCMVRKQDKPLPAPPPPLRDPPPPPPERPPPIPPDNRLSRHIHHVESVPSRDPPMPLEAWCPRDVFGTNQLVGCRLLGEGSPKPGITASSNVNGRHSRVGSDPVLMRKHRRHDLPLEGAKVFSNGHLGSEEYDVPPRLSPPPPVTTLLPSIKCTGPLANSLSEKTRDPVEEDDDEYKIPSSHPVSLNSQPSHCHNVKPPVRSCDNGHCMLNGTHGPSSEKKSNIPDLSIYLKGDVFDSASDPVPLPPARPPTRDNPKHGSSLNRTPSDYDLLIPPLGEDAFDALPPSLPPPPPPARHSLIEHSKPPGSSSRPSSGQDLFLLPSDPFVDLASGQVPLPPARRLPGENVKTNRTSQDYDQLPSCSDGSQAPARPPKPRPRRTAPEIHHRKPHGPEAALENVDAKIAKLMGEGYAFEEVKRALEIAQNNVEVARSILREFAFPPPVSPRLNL

Cc1cc(C(=O)Nc2cccc(C3(Cc4nncn4C)COC3)c2)nc(C2CC2)n1
CLint scaled [1]: 26 mL/min/kg
CLint scaled [2]: 7 mL/min/kg
IC50 [3]: 790 nM
half-life (in vitro): > 16.7 h

Cc1cc(C(=O)Nc2cccc([C@H](C)Cc3nncn3C)c2)nc(C2CC2)n1
IC50 [4]: 38 nM
CLint scaled [1]: 67 mL/min/kg
IC50 [3]: 780 nM
half-life (in vitro): 2.72 h

C[C@H](Cc1nncn1C)c1cccc(NC(=O)c2ccnc(C3CC3)n2)c1
IC50 [4]: 88 nM
CLint scaled [1]: 73 mL/min/kg
CLint scaled [2]: 30 mL/min/kg
IC50 [3]: 1700 nM

Cc1cc(C(=O)Nc2cccc(C3(Cc4nocc4C)COC3)c2)nc(C2CC2)n1
IC50 [5]: < 100 nM

C[C@H](Sc1nncn1C)c1cccc(NC(=O)c2ccnc(C3CC3)n2)c1
IC50 [4]: 92 nM

C[C@H]1CCCN(Cc2cc3c(c(C(F)(F)F)c2)CN(c2cccc([C@]4(c5nncn5C)C[C@@H](C)C4)c2)C3=O)C1
IC50 [4]: ≤ 5 nM

CN(C)c1c2c(c3nc4ccccc4c4c3c1N=C4)NCCC2=O
IC50 [6]: 167000 nM
GI50 [7]: 180 nM

C[C@H]1CCCN(Cc2cc3c(c(C(F)(F)F)c2)CN(c2cccc([C@]4(Cc5nncn5C)C[C@@H](C#N)C4)c2)C3=O)C1
IC50 [5]: < 1 nM

Cn1cnnc1CC1(c2cccc(N3Cc4c(cc(CN5CCCC(CC#N)C5)cc4C(F)(F)F)C3=O)c2)COC1 (stereo unspecified)
IC50 [5]: 1 nM

C[C@H](Cc1nncn1C)c1cccc(NC(=O)N2CCOc3cccnc32)c1
IC50 [8]: < 100 nM

Cn1cnnc1CC1(c2cccc(-n3cc4c(C(F)(F)F)cc(CN5CCC6(CC6)C5)cn4c3=O)c2)COC1
IC50 [9]: < 100000 nM

Cn1cnnc1[C@H](c1cccc(-n2cc3c(C(F)(F)F)cc(CN4CCC[C@@](C)(O)C4)cn3c2=O)c1)C1CCC1
IC50 [9]: < 100000 nM

C[C@@H]1CN(Cc2cc3c(c(C(F)(F)F)c2)CN(c2cccc(C4(c5nncn5C)CC(F)(F)C4)c2)C3=O)CCO1
IC50 [5]: ≤ 5 nM

CN(C)c1c2c(c3nc4ccccc4c4c3c1N=C4N1C(=O)c3c4c(nc5ccccc35)C3=C(C(=O)CCN3)C(=[N+](C)C)C41)NCCC2=O (stereo in doubt; (+)-8)
IC50 [6]: 9700 nM
GI50 [7]: > 30000 nM

CN(C)c1c2c(c3nc4ccccc4c4c3c1N=C4N1C(=O)c3c4c(nc5ccccc35)C3=C(C(=O)CCN3)C(=[N+](C)C)C41)NCCC2=O (stereo in doubt; (-)-8)
IC50 [6]: 7500 nM
